Measured values: US20130287890A1, “INHIBITOR OF THE PRODUCTION OF ADVANCED GLYCATION END PRODUCTS” (UENO FINE CHEMICALS INDUSTRY, LTD., priority 2012, published 2013)

Key:
3-DG = test: Quantitative determination of 3-DG (HPLC) after reaction of amino acid or biological protein with carbohydrates at 37° C. for 42 days; type: biochemical; details: for 3-DG: 37° C., 42 days
Method: (§1) Amino acid or biological protein, carbohydrates and a phosphate buffer solution were charged in a 50 mL polypropylene centrifuge tube in each amount shown in Table 8, followed by sealing and stirring, and then the mixture was reacted in an incubator at 37° C. for 42 days. Next, the reactant was fractionated by centrifugation at 3,000 rpm for 3 hours using an ultrafiltration unit (VIVA SPIN 20, manufactured by Sartorius Corporation). The obtained low molecular weight fraction was used as a sample for determination of 3-DG, while the obtained high molecular weight fraction was used as a sample for the determination of fluorescent AGEs. Amino acid, biological protein and carbohydrates used are as follows:
In the same manner as in Test Example 1, except that the low molecular weight fraction prepared as mentioned above was used as a sample, quantitative determination of 3-DG was performed. In the same manner as in Test Example 2, except that the high molecular weight fraction prepared as mentioned above was used as a sample, determination of fluorescent AGEs was performed.
(§2) Amino acid, carbohydrates and a phosphate buffer solution were charged in a 50 mL polypropylene centrifuge tube in each amount shown in Table 10, followed by sealing and stirring, and then the mixture was reacted in an incubator at 37° C. for 42 days. Next, the reactant was filtered through a 0.2 μm filter and the obtained filtrate was used as a sample. Amino acid and carbohydrates used are as follows:
To 2 mL of a sample, the same amount of a 60% perchloric acid solution was added to deproteinize the sample. The sample was neutralized with 4 mL of an aqueous saturated sodium hydrogen carbonate solution and 0.8 mL of a 0.1% methanol solution of 2,3-diaminonaphthalene was added, and then the mixture was reacted at 4° C. for 16 hours. Next, the reactant was extracted with 4.4 mL of ethyl acetate, concentrated to dryness using an evaporator, dissolved in 5 mL of methanol, and then filtered through a 0.45 μm filter. The filtrate was subjected to high-performance liquid chromatography and 3-DG was quantitatively determined under the following measurement conditions.
Injection amount: 20 μL Column: TSK-GEL, ODS-80Ts (4.6×150 mm, manufactured by TOSOH CORPORATION) Column temperature: 30° C. Mobile phase: 50 mM phosphoric acid:methanol:acetonitrile=7:1.5:1.5 Flow rate: 1 mL/min.
as §1, with “Biological proteins,” for “Amino acid or biological protein,”, “are” for “were”, “12,” for “8,”, “AGEs, pentosidine, CML, RAGE agonist activity and RAGE antagonist activity. Biological proteins” for “AGEs. Amino acid, biological protein”
(§3) In the same manner as in Test Example 4, except that the low molecular weight fraction prepared as mentioned above was used as a sample, quantitative determination of 3-DG was performed. In the same manner as in Test Example 4, except that the high molecular weight fraction was filtered through a 0.2 μm filter and the filtrate was used as a sample, fluorescent AGEs, pentosidine, CML, RAGE agonist activity and RAGE antagonist activity were evaluated.
(§4) Collagen, carbohydrates and a phosphate buffer solution were charged in a 50 mL polypropylene centrifuge tube in each amount shown in Table 14, followed by sealing and stirring, and then the mixture was reacted in an incubator at 37° C. for 42 days. Next, the reactant was fractionated by centrifugation at 3,000 rpm for 3 hours using an ultrafiltration unit (VIVA SPIN 20, manufactured by Sartorius Corporation). […]

pentosidine = test: Quantitative determination of pentosidine after reaction at 37° C. for 42 days; type: biochemical; details: for Pentosidine: 37° C., 42 days
Method: as §2
Using a pentosidine measurement kit “FSK Pentosidine (registered trademark)” (manufactured by Fushimi Pharmaceutical Co., Ltd.), quantitative determination of pentosidine was performed in the following manner. Thirty (30) or more minutes before use, reagents and pentosidine solid-phase plates were put to room temperature. After dilution of the sample, a 50 μL aliquot of the sample was dispensed to a pentosidine solid-phase plate attached to the kit, and 50 μL of a first antibody solution was dispensed into wells other than the wells for measurement of reagent blank value. After the sample and the antibody solution were mixed by shaking the plate at 300 rpm for 1 minute, the solution was reacted at 37° C. for 1 hour. Next, the reaction solution was discarded, and 200 μL of rinsing fluid was dispensed to wash the plate. The washing was performed for 3 times. After liquid on the plate was removed, 100 μl of a second antibody solution was dispensed into wells other than the wells for measurement of reagent blank value. After the solution was mixed by shaking the plate at 300 rpm for 1 minute, the solution was reacted at 25° C. for 1 hour. Then, the reaction solution was discarded, and the plate was washed for 3 times with 200 μL of rinsing fluid again. Liquid on the plate was removed, and 100 μL of a color coupler was dispensed and left to stand for 10 minutes under a light shielding condition. Finally, 100 μL of a reaction stop solution was dispensed, and within 10 minutes after the dispensing, measurement was performed at main wavelength 450 nm/reference wavelength 630 nm using a micro-plate reader. The concentration of pentosidine was determined using the calibration curve of a pentosidine standard solution, based on measurement values of the sample.
as §1, with “Biological proteins,” for “Amino acid or biological protein,”, “are” for “were”, “12,” for “8,”, “AGEs, pentosidine, CML, RAGE agonist activity and RAGE antagonist activity. Biological proteins” for “AGEs. Amino acid, biological protein”
as §3
as §4, with “Corporation). The obtained low molecular weight fraction was used as a sample for determination of 3-DG.” for “Corporation).”

[1] = Test Example 4, amino acid 0.4 g + carbohydrate 1.8 g
[2] = Test Example 5, bovine serum albumin 0.4 g + carbohydrate 1.8 g
[3] = Test Example 5, human serum albumin 0.4 g + carbohydrate 1.8 g
[4] = Test Example 5, γ-globulin 0.4 g + carbohydrate 1.8 g
[5] = Test Example 6, collagen 0.015 g + carbohydrate 1.8 g
[6] = Test Example 6, collagen 0.015 g + carbohydrate 1.8 g, hydrolysed high molecular weight fraction
[7] = Test Example 3, amino acid (lysine:arginine 1:1) 0.4 g + glucose 1.8 g or maltitol 3.4 g
[8] = Test Example 3, bovine serum albumin 0.4 g + glucose 1.8 g or maltitol 3.4 g
[9] = Test Example 4, amino acid, compared with sections containing glucose and fructose
[10] = Test Example 5, bovine serum albumin, human serum albumin, γ-globulin, compared with sections containing fructose
[11] = Test Example 5, bovine serum albumin, human serum albumin, γ-globulin, compared with sections containing glucose
[12] = Test Example 6, collagen, compared with sections containing glucose and fructose

SMILES	3-DG (3-DG; [1])	3-DG (3-DG; [2])	3-DG (3-DG; [3])	3-DG (3-DG; [4])	3-DG (3-DG; [5])	Pentosidine (pentosidine; [1])	Pentosidine (pentosidine; [2])	Pentosidine (pentosidine; [3])	Pentosidine (pentosidine; [4])	Pentosidine (pentosidine; [6])	3-DG (3-DG; [7])	3-DG (3-DG; [8])	further results
O=C(CO)[C@@H](O)[C@H](O)[C@H](O)CO [Fructose]	904 nmol/1 mL of reaction solution	5316 nmol/1 mL of reaction solution	2358 nmol/1 mL of reaction solution	877 nmol/1 mL of reaction solution	1447 nmol/1 mL of reaction solution	24.7 nmol/1 mL of reaction solution	0.03 nmol/1 mL of reaction solution	0.05 nmol/1 mL of reaction solution	0.005 nmol/1 mL of reaction solution	0.15 nmol/1 mL of reaction solution			
OC[C@@H](O)[C@@H](O[C@H]1O[C@H](CO)[C@@H](O)[C@H](O)[C@H]1O)[C@H](O)[C@@H](O)CO [Maltitol]											127 nmol/1 g of protein	1,181 nmol/1 g of protein	production of 3-DG (3-DG; Test Example 3, amino acids and bovine serum albumin, compared with sections containing glucose): significantly decreased
O=C[C@H](O)[C@@H](O)[C@H](O)[C@H](O)CO [Glucose]	8310 nmol/1 mL of reaction solution	10253 nmol/1 mL of reaction solution	2575 nmol/1 mL of reaction solution	877 nmol/1 mL of reaction solution	232 nmol/1 mL of reaction solution	5.8 nmol/1 mL of reaction solution	0.01 nmol/1 mL of reaction solution	0.02 nmol/1 mL of reaction solution	0.002 nmol/1 mL of reaction solution	0.06 nmol/1 mL of reaction solution	22,761 nmol/1 g of protein	29,938 nmol/1 g of protein	
OC[C@@H](O)[C@@H](O)[C@H](O)[C@@H](O)CO [Sorbitol]	13 nmol/1 mL of reaction solution	33 nmol/1 mL of reaction solution	78 nmol/1 mL of reaction solution	21 nmol/1 mL of reaction solution	24 nmol/1 mL of reaction solution	0.8 nmol/1 mL of reaction solution	0.03 nmol/1 mL of reaction solution	0.02 nmol/1 mL of reaction solution	0.002 nmol/1 mL of reaction solution	0.05 nmol/1 mL of reaction solution			production of 3-DG (3-DG; [9]): significantly decreased; production of 3-DG (3-DG; [10]): significantly decreased; production of 3-DG (3-DG; [11]): decreased; production of 3-DG (3-DG; [12]): significantly decreased; production of pentosidine (pentosidine; [9]): decreased; production of pentosidine (pentosidine; [10]): decreased; production of pentosidine (pentosidine; [11]): decreased; production of pentosidine (pentosidine; [12]): decreased
